According to US20060286130A1, “Sterile gelling agents” (priority 2005, published 2006):

What was measured:
[1] = Sterilization by dry heat, appearance of the material; assay type: physicochemical; details: 180° C. for 2 hours
Experimental: Sorbitan monostearate (Sanyo, Japan) was subjected to sterilization by dry heat at a temperature of 180° C. for 2 hours. […] The material thus obtained though it would pass the test for sterility renders the final product unacceptable for pharmiaceutical use because of the dark brown color it imparts.

[2] = Sterilization by gamma irradiation, appearance / degradation of the gelling agent; assay type: physicochemical; details: 25 KGy, 60Cobalt source
Excerpt: In an additional embodiment of the invention, the sterile dried bulk gelling agent is subjected to sterilization by gamma irradiation. […] Other materials in the gelled polymeric dispersion can be processed by other techniques as described above and generally known in the art of preparation of sterile dosage forms.
Sorbitan monostearate prepared in Example 1 was exposed to gamma irradiation at a dose of 25 KGy using a ^60Cobalt source at a contract irradiation laboratory. A dose of 25 KGy is accepted internationally to be sufficient to ensure sterility (British Pharmacopoeia).

appearance after sterilization by dry heat [1]	change in appearance after gamma irradiation [2]	Substance
dark brown colored mass	–	Sorbitan monostearate [listing 1 of 2 here]
–	no change in appearance	Sorbitan monostearate [listing 2 of 2 here]
